Assay results published in patent US12581252B2, “Substituted pyrrolo[3,4-b]pyridines as PI3K-α inhibitors” (Relay Therapeutics, Inc., priority 2020, dated 2026).

Target: H1047R PIK3CA enzyme (Homo sapiens, UniProt P42336, H1047R)
Test: ADP-Glo Biochemical PIK3CA Kinase Assay

Chain of H1047R PIK3CA enzyme (P42336 whole entry H1047R): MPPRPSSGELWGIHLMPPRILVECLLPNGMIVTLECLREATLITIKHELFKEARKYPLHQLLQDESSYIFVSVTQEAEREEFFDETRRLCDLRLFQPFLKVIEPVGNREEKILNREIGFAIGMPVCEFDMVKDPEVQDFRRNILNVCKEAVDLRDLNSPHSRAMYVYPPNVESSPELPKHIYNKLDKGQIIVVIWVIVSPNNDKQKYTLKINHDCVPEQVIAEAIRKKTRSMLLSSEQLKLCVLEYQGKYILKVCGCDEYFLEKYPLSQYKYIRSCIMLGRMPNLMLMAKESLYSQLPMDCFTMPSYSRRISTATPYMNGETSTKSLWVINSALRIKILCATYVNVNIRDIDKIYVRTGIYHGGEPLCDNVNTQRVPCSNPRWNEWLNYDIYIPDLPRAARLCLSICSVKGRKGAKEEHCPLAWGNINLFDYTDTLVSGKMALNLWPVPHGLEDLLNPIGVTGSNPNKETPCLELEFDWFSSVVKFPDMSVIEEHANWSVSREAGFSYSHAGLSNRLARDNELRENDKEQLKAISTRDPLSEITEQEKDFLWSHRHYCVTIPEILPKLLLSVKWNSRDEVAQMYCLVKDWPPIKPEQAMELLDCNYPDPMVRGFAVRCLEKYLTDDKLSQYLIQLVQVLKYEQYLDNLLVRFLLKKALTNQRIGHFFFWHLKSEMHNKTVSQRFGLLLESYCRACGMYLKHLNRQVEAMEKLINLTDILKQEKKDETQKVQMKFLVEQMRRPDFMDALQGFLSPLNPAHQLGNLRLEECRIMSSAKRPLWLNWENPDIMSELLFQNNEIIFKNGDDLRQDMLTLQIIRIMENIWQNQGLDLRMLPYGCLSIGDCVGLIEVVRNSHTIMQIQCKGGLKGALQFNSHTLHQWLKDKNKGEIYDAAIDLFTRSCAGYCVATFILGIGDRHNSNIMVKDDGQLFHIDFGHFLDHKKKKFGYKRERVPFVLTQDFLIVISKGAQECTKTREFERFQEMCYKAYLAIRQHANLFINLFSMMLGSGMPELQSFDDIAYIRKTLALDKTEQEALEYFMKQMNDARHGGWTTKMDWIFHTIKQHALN
Chain of H1047R PIK3CA enzyme (P27986 whole entry partner): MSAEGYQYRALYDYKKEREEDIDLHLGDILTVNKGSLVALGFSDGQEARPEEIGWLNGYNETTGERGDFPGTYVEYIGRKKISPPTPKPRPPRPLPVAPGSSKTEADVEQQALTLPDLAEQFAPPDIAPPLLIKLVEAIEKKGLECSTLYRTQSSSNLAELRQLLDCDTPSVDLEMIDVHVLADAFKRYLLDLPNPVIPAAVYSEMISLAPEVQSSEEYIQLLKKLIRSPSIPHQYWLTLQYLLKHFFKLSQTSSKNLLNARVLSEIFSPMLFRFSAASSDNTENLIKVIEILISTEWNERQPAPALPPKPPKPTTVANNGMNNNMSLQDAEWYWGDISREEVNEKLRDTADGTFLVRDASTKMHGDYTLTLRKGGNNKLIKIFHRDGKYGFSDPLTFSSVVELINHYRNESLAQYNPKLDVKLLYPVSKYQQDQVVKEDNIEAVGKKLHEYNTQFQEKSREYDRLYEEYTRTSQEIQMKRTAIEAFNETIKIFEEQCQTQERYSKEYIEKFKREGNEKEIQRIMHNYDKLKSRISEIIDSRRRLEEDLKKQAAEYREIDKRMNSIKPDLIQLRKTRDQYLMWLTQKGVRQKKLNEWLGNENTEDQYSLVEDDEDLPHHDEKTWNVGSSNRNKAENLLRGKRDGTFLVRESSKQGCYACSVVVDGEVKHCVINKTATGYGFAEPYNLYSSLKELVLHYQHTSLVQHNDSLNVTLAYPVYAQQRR

Row | SMILES | IC50 [nM]
1 | O=C(Nc1cc(-c2ccncc2C(=O)O)cc2c1C(c1cc(F)ccc1Cl)NC2=O)c1cc(F)cc(C(F)(F)F)c1 (centres unmarked) [Compound I-1217] | 100 to 500
2 | O=C1N[C@@H](c2cc(F)ccc2Cl)c2c(NC(=O)N3C[C@](O)(C(F)(F)F)c4cc(F)ccc43)cc(N3CCOC3=O)cc21 (single isomer, unassigned) [Compound I-2676] | 10000 to 100000
3 | Cc1ccccc1C1NC(=O)c2cc(CF)cc(NC(=O)c3cc(F)cc(C(F)(F)F)c3)c21 (centres unmarked) [Compound I-536] | ≤ 100
4 | N#Cc1nc2cc(-c3cc(NC(=O)c4cc(F)cc(C(F)(F)F)c4)c4c(c3)C(=O)NC4c3cc(F)ccc3Cl)ccn2n1 (centres unmarked) [Compound I-1741] | ≤ 100
5 | O=C(Nc1cc(-c2cnc(OC3CC3)nc2)cc2c1C(c1cc(F)ccc1Cl)NC2=O)c1cc(F)cc(C(F)(F)F)c1 (centres unmarked) [Compound I-1492] | ≤ 100
6 | CS(=O)(=O)CCCOc1cc(NC(=O)c2cc(F)cc(C(F)(F)F)c2)c2c(c1)C(=O)NC2c1cc(F)ccc1Cl (centres unmarked) [Compound I-735] | 100 to 500
7 | O=C(Nc1cc(-c2ccc3ncnn3n2)cc2c1[C@@H](c1cc(F)ccc1Cl)NC2=O)c1cc(F)cc(C(F)(F)F)c1 [Compound I-1649] | 1000 to 10000
8 | O=C1NC(c2c(F)cccc2F)c2c(NC(=O)c3nsc4ccccc34)cccc21 (centres unmarked) [Compound I-84] | 1000 to 10000
9 | O/N=C(\Nc1cccc2c1C(c1cc(F)ccc1Cl)NC2=S)c1cc(F)cc(C(F)(F)F)c1 (centres unmarked) [Compound I-846] | 500 to 1000
10 | CN1CC[C@@H](Nc2cc(NC(=O)c3cc(F)cc(C(F)(F)F)c3)c3c(c2)C(=O)NC3c2cc(F)ccc2Cl)C1 (some centres unmarked) [Compound I-312] | ≤ 100
11 | Cc1ccccc1[C@@H]1NC(=O)c2c(C(N)=O)ccc(NC(=O)c3cc(F)cc(C(F)(F)F)c3)c21 [Compound I-508] | ≤ 100
12 | Cc1ccccc1C1NC(=O)c2cc(C3(O)CC3)cc(NC(=O)c3nsc4ccccc34)c21 (centres unmarked) [Compound I-315, N-[6-(1-hydroxycyclopropyl)-3-(2-methylphenyl)-1-oxo-2,3-dihydro-1H-isoindol-4-yl]-1,2-benzothiazole-3-carboxamide] | ≤ 100
13 | O=C1N[C@H](c2cc(F)ccc2Cl)c2c(NC(=O)N3C[C@@](O)(C(F)(F)F)c4cc(F)ccc43)cccc21 (single isomer, unassigned) [Compound I-2514] | 10000 to 100000
14 | O=C(Nc1cc(-c2ccc3ncnn3c2)c(-c2ccc3ncnn3c2)c2c1C(c1cc(F)ccc1Cl)NC2=O)c1cc(F)cc(C(F)(F)F)c1 (centres unmarked) [Compound I-1802] | 100 to 500
15 | O=C(Nc1cc(CN2CCC(F)(F)C2)cc2c1C(c1cc(F)ccc1Cl)NC2=O)c1cc(F)cc(C(F)(F)F)c1 (centres unmarked) [Compound I-353] | ≤ 100
16 | Cc1ccccc1C1NC(=O)c2c(N(C)C)ncc(NC(=O)c3nsc4ccccc34)c21 (centres unmarked) [Compound I-143] | 100 to 500
17 | N#Cc1cccc(S(=O)(=O)Cc2cc(NC(=O)c3cc(F)cc(C(F)(F)F)c3)c3c(c2)C(=O)N[C@@H]3c2cc(F)ccc2Cl)c1 [Compound I-1595] | 1000 to 10000

Row | SMILES | IC50 [nM]
18 | O=C1CC2(CCN(c3cc(NC(=O)c4cc(F)cc(C(F)(F)F)c4)c4c(c3)C(=O)NC4c3cc(F)ccc3Cl)C2)CN1 (centres unmarked) [Compound I-1267] | ≤ 100
19 | O=C1Cc2cccc(NC(=O)c3cc(F)cc(C(F)(F)F)c3)c2C(c2ccccc2Cl)N1 (centres unmarked) [Compound I-1178] | 1000 to 10000
20 | CC(C)(C)N[C@@H]1NC(=O)c2cccc(NC(=O)c3cc(F)cc(C(F)(F)F)c3)c21 (single isomer, unassigned) [Compound I-2247] | 10000 to 100000
21 | O=C(Nc1cc(-c2ccc3ncnn3c2)nc2c1[C@H](c1cc(F)ccc1Cl)NC2=O)c1cc(F)cc(C(F)(F)F)c1 [Compound I-1229] | ≤ 100
22 | Cc1ccccc1C1NC(=O)c2cccc(NC(=O)c3cc(F)cc4cc[nH]c34)c21 (centres unmarked) [Compound I-454] | 100 to 500
23 | O=C(Nc1cc(C2COCCO2)cc2c1C(c1cc(F)ccc1Cl)NC2=O)c1cc(F)cc(C(F)(F)F)c1 (centres unmarked) [Compound I-1361] | 100 to 500
24 | COc1ccccc1-c1cc(NC(=O)c2cc(F)cc(C(F)(F)F)c2)c2c(c1)C(=O)NC2c1cc(F)ccc1Cl (centres unmarked) [Compound I-1197] | 100 to 500
25 | O=C(Nc1cc(Cc2ccc3c(c2)CCNC3=O)cc2c1[C@H](c1cc(F)ccc1Cl)NC2=O)c1cc(F)cc(C(F)(F)F)c1 [Compound I-1626] | ≤ 100
26 | C[C@@H]([C@@H]1C[C@H](O)CN1C(=O)Nc1cccc2c1[C@H](c1cc(F)ccc1Cl)NC2=O)C(F)(F)F (single isomer, unassigned) [Compound I-2393] | 500 to 1000
27 | Cc1ccccc1CC1NC(=O)c2cccc(NC(=O)c3cc(F)cc(C(F)(F)F)c3)c21 (centres unmarked) [Compound I-841] | 1000 to 10000
28 | O=C(Nc1cc(C(O)C2(O)COC2)cc2c1C(c1cc(F)ccc1Cl)NC2=O)c1cc(F)cc(C(F)(F)F)c1 (centres unmarked) [Compound I-1337] | 100 to 500
29 | C[C@]1(O)C[C@@H](Nc2cc(NC(=O)c3cc(F)cc(C(F)(F)F)c3)c3c(n2)C(=O)NC3c2cc(F)ccc2Cl)C1 (single isomer, unassigned) [Compound I-329] | 100 to 500
30 | CS(=O)(=O)c1ccc(-c2cc(NC(=O)c3cc(F)cc(C(F)(F)F)c3)c3c(c2)C(=O)NC3c2cc(F)ccc2Cl)nc1 (centres unmarked) [Compound I-1456] | ≤ 100
31 | O=C(Nc1cc(-c2ccn3ncnc3c2)cc2c1C(c1cc(F)ccc1O)NC2=O)c1cc(F)cc(C(F)(F)F)c1 (centres unmarked) [Compound I-1655] | 1000 to 10000
32 | O=C(Nc1cc(-c2ccc(C(F)F)nc2)cc2c1[C@@H](c1cc(F)ccc1Cl)NC2=O)c1cc(F)cc(C(F)(F)F)c1 [Compound I-2004] | 1000 to 10000
33 | O=C(Nc1cc(-c2ccnc(C(F)F)c2)cc2c1[C@@H](c1cc(F)ccc1Cl)NC2=O)c1cc(F)cc(C(F)(F)F)c1 [Compound I-2002] | 1000 to 10000

Results, then the compound that gave them:

Row | IC50 [nM] | SMILES
34 | 1000 to 10000 | O=C1N[C@H](c2cc(F)ccc2Cl)c2c(NC(=O)N3C[C@@H](O)c4c3ccc(F)c4F)cccc21 (single isomer, unassigned) [Compound I-2311]
35 | 10000 to 100000 | O=C1N[C@H](c2cc(F)ccc2Cl)c2c(NC(=O)N3C[C@H](O)c4cc(F)ccc43)cccc21 (single isomer, unassigned) [Compound I-2128]
36 | 10000 to 100000 | O=C(Nc1cc(Br)cc2c1C(c1cc(F)ccc1Cl)NC2=O)c1cccc2c1OCCC2 (centres unmarked) [Compound I-601]
37 | 10000 to 100000 | O=C1NC(c2cc(F)ccc2Cl)c2c(NC(=O)C3CCCC3)cc(-c3ccc4ncnn4c3)cc21 (centres unmarked) [Compound I-1782]
38 | 1000 to 10000 | O=C1NC(c2cc(F)ccc2Cl)c2c(Nc3nn(CCO)c4ccccc34)cc(-c3ccc4ncnn4c3)cc21 (centres unmarked) [Compound I-1807]
39 | ≤ 100 | CC(O)c1cc(NC(=O)c2cc(F)cc(C(F)(F)F)c2)c2c(c1)C(=O)NC2c1cc(F)ccc1Cl (racemic) [Compound I-664]
40 | 1000 to 10000 | O=C(Nc1cc(Br)cc2c1C(c1cc(F)ccc1Cl)NC2=O)c1cncc(C(F)(F)F)c1 (centres unmarked) [Compound I-957]
41 | 10000 to 100000 | CNC(=O)c1cc(-c2ccc3ncnn3c2)cc2c1C(c1cc(F)ccc1Cl)NC2=O (centres unmarked) [Compound I-1846]
42 | 10000 to 100000 | O=C1NC(c2cc(F)ccc2Cl)c2c(NC(=O)N3CCC(F)C3)cc(Br)cc21 (centres unmarked) [Compound I-542]
43 | 10000 to 100000 | O=C1NC(c2cc(F)ccc2Cl)c2c(COc3ccccc3)cc(-c3ccc4ncnn4c3)cc21 (centres unmarked) [Compound I-2017]
44 | 1000 to 10000 | O=C1NC(c2cc(F)ccc2Cl)c2c(NC(=O)c3cc(F)cc4oc(=O)[nH]c34)cc(Br)cc21 (centres unmarked) [Compound I-1319]
45 | ≤ 100 | Cc1ncc(-c2cc(NC(=O)c3cc(F)cc(C(F)(F)F)c3)c3c(c2)C(=O)N[C@H]3c2cc(F)ccc2Cl)cn1 [Compound I-784]
46 | ≤ 100 | O=C(Nc1cc(NC(=O)C2CC2)cc2c1C(c1cc(F)ccc1Cl)NC2=O)c1cc(F)cc(C(F)(F)F)c1 (centres unmarked) [Compound I-625]
47 | ≤ 100 | O=C(Nc1cc(CC2COC2)cc2c1C(c1cc(F)ccc1Cl)NC2=O)c1cc(F)cc(C(F)(F)F)c1 (centres unmarked) [Compound I-1279]
48 | 10000 to 100000 | O=C1NC(c2cc(F)ccc2Cl)c2c(NC(=O)C3CC(C(F)(F)F)CCN3)cc(Br)cc21 (centres unmarked) [Compound I-1689]
49 | 10000 to 100000 | NCc1cc(-c2ccc3ncnn3c2)cc2c1C(c1cc(F)ccc1Cl)NC2=O (centres unmarked) [Compound I-1950]
50 | 1000 to 10000 | CC(=O)c1cc(F)cc(C(=O)Nc2cccc3c2C(c2cc(F)ccc2Cl)NC3=O)c1 (centres unmarked) [Compound I-581]
51 | 10000 to 100000 | CN(C)S(=O)(=O)c1cc(-c2ccc3ncnn3c2)cc2c1[C@H](c1cc(F)ccc1Cl)NC2=O [Compound I-2099]
52 | 1000 to 10000 | CC(C)(C)C1CCCN1C(=O)Nc1cccc2c1C(c1cc(F)ccc1Cl)NC2=O (single isomer, unassigned) [Compound I-2433]
53 | 10000 to 100000 | O=C1N[C@@H](c2cc(F)ccc2Cl)c2c(NC(=O)[C@@H]3C[C@@H](O)C[C@H](C(F)(F)F)C3)cccc21 (single isomer, unassigned) [Compound I-2175]
54 | 10000 to 100000 | O=C1N[C@@H](c2cc(F)ccc2Cl)c2c(N[C@H]3CCOc4ccccc43)cc(Br)cc21 (racemic) [Compound I-2013]
55 | 10000 to 100000 | O=C1N[C@@H](c2cc(F)ccc2Cl)c2c(Nc3cn[nH]c3)cc(Br)cc21 [Compound I-2184]
56 | 1000 to 10000 | NCCc1cc(NC(=O)N2C[C@@H](O)c3cc(F)ccc32)c2c(c1)C(=O)N[C@H]2c1cc(F)ccc1Cl (single isomer, unassigned) [Compound I-2446]
57 | ≤ 100 | C[C@@H](c1cc(NC(=O)c2cc(F)cc(C(F)(F)F)c2)c2c(c1)C(=O)N[C@H]2c1cc(F)ccc1Cl)S(C)(=O)=O (single isomer, unassigned) [Compound I-1641]
58 | ≤ 100 | NC(=O)Cc1cc(NC(=O)c2cc(F)cc(C(F)(F)F)c2)c2c(c1)C(=O)NC2c1cc(F)ccc1Cl (centres unmarked) [Compound I-578]
59 | 1000 to 10000 | N#C/N=C(\Nc1ccc(F)cc1C(F)(F)F)Nc1cc(Br)cc2c1C(c1cc(F)ccc1Cl)NC2=O (centres unmarked) [Compound I-1502]
60 | ≤ 100 | N#Cc1cc(NC(=O)c2cc(F)cc(C(F)(F)F)c2)c2c(c1)C(=O)N[C@H]2c1cc(F)ccc1Cl (single isomer, unassigned) [Compound I-771]
61 | ≤ 100 | N#Cc1cc(NC(=O)c2cc(F)cc(C(F)(F)F)c2)c2c(c1)C(=O)N[C@@H]2c1cc(F)ccc1Cl (single isomer, unassigned) [Compound I-770]
62 | 1000 to 10000 | O=C1NC(c2cc(F)ccc2Cl)c2c(NC(=O)C3CC4(CCC4)C3)cc(Br)cc21 (centres unmarked) [Compound I-1362]
